Several values for one entry are separate records, joined by “and”; a condition that tells them apart may be missing. Identical values can stand only once.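 Briefly, cells in 96-well plates were exposed to five compound concentrations for 48 h, and endpoints were estimated by linear interpolation. At the GI50, growth is halved. TGI: concentration producing complete growth inhibition.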 Starred links: 1 amine or outer side, 2 acyl side, 3 side chain; linkers in the order of their positions; H or OH if unused. Positions of bridges follow the written chain, without caps; N, C: chain ends. Non-standard residues stand in square brackets, D forms with d. Residues, ends and D or L forms follow the SMILES beside them. Chains are numbered I, II in the order given. Actinocin(9to1) = Cc1c2oc3c(C)ccc(C(=O)[*:1])c3nc-2c(C(=O)[*:2])c(N)c1=O; NMeY = CN[CH](Cc1ccc(O)cc1)C(=O)O; Sar = CNCC(=O)O
Legend:
Experiment in all cases: NCI-60 cell line screen, 48 h
[1] = tested on: ACHN renal
[2] = tested on: HCT-15 colon
[3] = tested on: KM12 colon
[4] = tested on: MCF7 breast
[5] = tested on: MDA-N
[6] = tested on: NCI-H23 lung
[7] = tested on: OVCAR-8 ovarian
[8] = tested on: RPMI-8226 leukemia
[9] = tested on: RXF 393 renal
[10] = tested on: SNB-19 CNS

Row | Compound | TGI [1] [µM] | TGI [2] [µM] | TGI [3] | TGI [4] [µM] | TGI [5] | TGI [6] | TGI [7] [µM] | TGI [8] | TGI [9] | TGI [10] [µM] | GI50 [2] | GI50 [4] [µM] | GI50 [5] | GI50 [6] | GI50 [9] | GI50 [10]
1 | O=S(=O)(O)CCCc1cccc2ccccc12 | > 100 | > 100 | > 100 µM | > 100 | > 100 µM | > 100 µM | > 100 | > 100 µM | > 100 µM | > 100 |  |  |  |  |  | 
2 | O=[N+]([O-])c1ccc(CN(CCCl)OCCCl)cc1 | > 100 | > 100 | > 100 µM | > 100 | > 100 µM | > 100 µM | > 100 | > 100 µM | > 100 µM | > 100 |  |  |  |  |  | 
3 | CC(C)(C)OC(=O)NC1CCCCC1NC(=O)C(=O)NC1CCCCC1NC(=O)OC(C)(C)C (stereo unspecified) | > 100 | > 100 | > 100 µM | > 100 | > 100 µM | > 100 µM | > 100 | > 100 µM | 38.8 µM | > 100 |  |  |  |  |  | 
4 | CCn1c(-c2ccccc2)cs/c1=N\C(P(=O)(O)O)P(=O)(O)O | > 100 | > 100 | > 100 µM | > 100 | > 100 µM | > 100 µM | > 100 | > 100 µM | > 100 µM | > 100 |  |  |  |  |  | 
5 | CCCC(=O)NC(NC1CCCCC1)(C(=O)OCC)C(F)(F)F (stereo unspecified) | > 100 | > 100 | > 100 µM | > 100 | > 100 µM | > 100 µM | > 100 | > 100 µM | > 100 µM | > 100 |  |  |  |  |  | 
6 | COc1cc(C2c3cc4c(cc3OC(N3CCCCC3)C2C)OCO4)cc(OC)c1O (stereo unspecified) | 23.1 | > 57.1 | 50.6 µM | > 43 | 5.6 µM | > 66.9 µM | 36.7 | > 76.3 µM | > 100 µM | 53.7 |  |  |  |  |  | 
7 | CN(C)c1ccc(/C=c2/c3ccccc3n3c2c2c([n+]3C)CCCC2)cc1 | 1.99 | 5.56 | 0.539 µM | 0.321 | 1.27 µM | 6.49 µM | 2.49 | 0.656 µM | 0.616 µM | 6.68 |  |  |  |  |  | 
8 | Cc1c2oc3c(C)ccc(C(=O)NC4C(=O)NC(C(C)C)C(=O)N5CCCC5C(=O)N(C)CC(=O)N(C)C(Cc5ccc(O)cc5)C(=O)OC4C)c3nc-2c(C(=O)NC2C(=O)NC(C(C)C)C(=O)N3CCCC3C(=O)N(C)CC(=O)N(C)C(Cc3ccc(O)cc3)C(=O)OC2C)c(N)c1=O (stereo unspecified) (I: TVP[Sar][NMeY] / II: TVP[Sar][NMeY]; ester I:1-I:C, II:1-II:C; linker I:N-II:N via Actinocin(9to1); configuration not given here) | > 1 | > 1 | 0.536 µM and > 1 µM | > 1 | > 0.48 µM and 0.259 µM | 0.287 µM and 0.0772 µM | 0.612 | 0.926 µM and > 1 µM | 0.307 µM and 0.0871 µM | > 1 | 0.988 µM and 0.116 µM | 0.00329 | 0.0273 µM and 0.00511 µM | 0.0493 µM and 0.0128 µM | 0.0635 µM and 0.0229 µM | 0.00797 µM and 0.00332 µM
9 | O=c1oc2ccccc2cc1-c1cc2ccccn2c1 | > 100 | > 100 | > 100 µM | > 100 | > 100 µM | > 100 µM | > 100 | > 100 µM | > 100 µM | > 100 |  |  |  |  |  | 
